How the values were obtained:
[1] = tested on: Liver microsome; assay: Drug metabolism in rat liver microsomes assessed as formation of (+)-2-(4-(benzo[b]thiophen-5-yl)-2-methyl-1,2,3,4-tetrahydroisoquinolin-7-ylamino)ethanol; type: ADME
[2] = Volume of distribution at steady state in cynomolgus monkey at 2 mg/kg, po and 0.5 mg/kg, iv; type: ADME, organism-based, Macaca fascicularis; settings: in vivo, read-out: Vdss
[3] = Clearance in cynomolgus monkey at 2 mg/kg, po and 0.5 mg/kg, iv; type: ADME, organism-based, Macaca fascicularis; settings: in vivo
[4] = Ratio of drug uptake in brain to plasma of Sprague-Dawley rat at 10 mg/kg, po measured after 1 hr; type: ADME, organism-based; parameters: dose 10 mg/kg, route oral; settings: read-out: BPR
[5] = species: Rattus norvegicus; assay: Drug metabolism in rat assessed as formation of (+)-2-(4-(benzo[b]thiophen-5-yl)-2-methyl-1,2,3,4-tetrahydroisoquinolin-7-ylamino)ethanol; type: ADME, organism-based; settings: in vivo
[6] = Oral bioavailability at steady state in cynomolgus monkey at 2 mg/kg; type: ADME, organism-based, Macaca fascicularis; settings: in vivo
[7] = Volume of distribution at steady state in Sprague-Dawley rat at 10 mg/kg, po and 1 mg/kg, iv; type: ADME, organism-based; settings: in vivo, read-out: Vdss
[8] = Oral bioavailability in Sprague-Dawley rat at 10 mg/kg; type: ADME, organism-based; settings: in vivo
[9] = tested on: Liver microsome; assay: Drug metabolism in human liver microsomes assessed as formation of (+)-2-(4-(benzo[b]thiophen-5-yl)-2-methyl-1,2,3,4-tetrahydroisoquinolin-7-ylamino)ethanol; type: ADME
[10] = Clearance in Sprague-Dawley rat at 10 mg/kg, po and 1 mg/kg, iv; type: ADME, organism-based; settings: in vivo

For `CN1Cc2cc(N3CCOCC3)ccc2[C@@H](c2ccc3sccc3c2)C1`, the Drug metabolism [1] was “metabolite_detected”, the Vd [2] was 16 L/kg and the clearance [3] was 27 mL/min/kg. For the same compound, the Kp at 1 h [4] was 3, the Drug metabolism [5] was “metabolite_notdetected” and the bioavailability [6] was 39%. The Vd [7] was 14 L/kg, the bioavailability [8] was 81% and the Drug metabolism [9] was “metabolite_detected”. The clearance [10] was 47 mL/min/kg.

Source: ChEMBL document CHEMBL3351632, “Design and synthesis of 4-heteroaryl 1,2,3,4-tetrahydroisoquinolines as triple reuptake inhibitors” (ACS Med Chem Lett, 2014)
